From PMC9912809 (Inorganic chemistry, 2022)
Read-outs that look alike come from different tables or passages of the source. Values belong to the molecule of their own block, whether it stands above or below them.

Key:
[1] = logP by potentiometric octanol/water titration; assay type: physicochemical
[2] = molecular target: T1, Recombinant human glyoxalase I (GLO1) (Homo sapiens, UniProt Q04760); test: GLO1 inhibition assay; assay type: biochemical
T1 sequence (Q04760 2-184 limits assumed): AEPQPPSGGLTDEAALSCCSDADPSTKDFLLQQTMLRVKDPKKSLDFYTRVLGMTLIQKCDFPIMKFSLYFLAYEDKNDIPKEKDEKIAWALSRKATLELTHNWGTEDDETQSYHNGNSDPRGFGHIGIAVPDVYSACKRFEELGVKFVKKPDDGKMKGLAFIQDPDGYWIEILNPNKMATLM

[3] = molecular target: Human carbonic anhydrase II (hCAII) (Homo sapiens, UniProt P00918); test: hCAII inhibition assay; assay type: biochemical
[4] = molecular target: T2, GLO1 (Homo sapiens, UniProt Q04760); test: Thermal shift assay; assay type: binding; conditions: thermal shift assay (Table S7)
T2 sequence (Q04760 2-184 limits assumed): T1 sequence (Q04760 2-184 limits assumed)

[5] = molecular target: Human recombinant MMP-2 catalytic domain (Homo sapiens, UniProt P08253); test: MMP-2 fluorogenic substrate inhibition assay; conditions: for Percent inhibition MMP-2: SD of triplicate in parentheses
Human recombinant MMP-2 catalytic domain, sequence (P08253 110-452 limits assumed): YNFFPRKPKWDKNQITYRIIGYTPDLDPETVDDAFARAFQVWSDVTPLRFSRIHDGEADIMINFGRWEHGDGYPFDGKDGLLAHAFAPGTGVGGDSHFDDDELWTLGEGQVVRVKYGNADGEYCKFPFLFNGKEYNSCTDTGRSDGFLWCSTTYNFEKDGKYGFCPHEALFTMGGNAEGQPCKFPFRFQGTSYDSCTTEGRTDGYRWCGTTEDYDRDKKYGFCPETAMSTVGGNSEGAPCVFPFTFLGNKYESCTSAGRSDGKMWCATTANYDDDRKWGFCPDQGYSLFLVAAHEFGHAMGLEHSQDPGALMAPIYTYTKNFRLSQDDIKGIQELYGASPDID

[6] = pKa determination with SiriusT3; assay type: physicochemical; conditions: SiriusT3, range pH 2.0 – 12.0, 0.15 M KCl
[7] = 200 μM, SD of triplicate in parentheses

Structure (SMILES): Oc1cccc2cccnc12 [8-HQ, 8-Hydroxyquinoline, reference compound]
logP ([1]; octanol/water): 1.86 | logD ([1]; octanol/water, pH 7.4): 1.85 | inhibition at 200 µM ([2]; read-out: Percent inhibition GLO1): 95% | inhibition at 200 µM ([3]; read-out: Percent inhibition hCAII): < 5% | ΔTM of MBI-bound GLO1 vs native, unbound GLO1 [4]: > 3 °C | IC50 [5]: 166 µM | inhibition at 200 µM ([5]; read-out: Percent inhibition MMP-2): 57%

Inhibition of GLO1 by positive control ([2]; 50 μM final concentration): complete inhibition
Structure (SMILES): COCCCn1ccc2cc(-c3cc(-c4ccccc4)cc(=O)n3O)cnc21 [Chugai-3d, reference compound]

Reduction of GLO1 inhibition activity compared to 8-HQ ([2]; 200 μM): > 50% | Percent inhibition GLO1 [2, 7]: <5% | Reduction of MMP-2 inhibition activity compared to 8-HQ ([5]; 200 μM): > 50% | Percent inhibition MMP-2 ([5]; 200 μM): 26 (7) %
Structure (SMILES): Oc1ccc2ncccc2c1 [Compound 32]

Measured pKa1 (conjugated acid, protonated nitrogen of heteroaromatic ring) [6]: 3.17 | Measured pKa2 (hydroxyl group or its isosteric replacement) [6]: 8.97 | Measured logD7.4 ([1]; derived from measured pKa and logP, pH 7.4): 0.99 | Measured logP ([1]; octanol/water, potentiometric, SiriusT3): 1.01 | Percent inhibition hCAII [3, 7]: <5% | Percent inhibition MMP-2 ([5]; 200 μM): 59 (2) % | IC50 ([5]; read-out: IC50 MMP-2, dose-response 10 μM to 1000 or 1500 μM (Figure S2)): 154 ± 9.8 µM
Structure (SMILES): CS(=O)(=O)Nc1cccc2cccnc12 [MBI 18]

Structure (SMILES): COc1ccc(S(=O)(=O)N(CC(=O)NO)CC(C)C)cc1 [NNGH, reference compound]
Inhibition of MMP-2 by positive control ([5]; 50 μM final concentration): complete inhibition
